Activity calls are given as the source filed them.
Experiments:
[1] = molecular target: T1, Neuropeptides B/W receptor type 1 (Homo sapiens, UniProt P48145); experiment: human NPBW1 receptor blockade, IC50 – cell-based, fluorescence, dose response, late-stage follow-up (AID 463251); type: functional
T1 sequence (P48145 whole entry): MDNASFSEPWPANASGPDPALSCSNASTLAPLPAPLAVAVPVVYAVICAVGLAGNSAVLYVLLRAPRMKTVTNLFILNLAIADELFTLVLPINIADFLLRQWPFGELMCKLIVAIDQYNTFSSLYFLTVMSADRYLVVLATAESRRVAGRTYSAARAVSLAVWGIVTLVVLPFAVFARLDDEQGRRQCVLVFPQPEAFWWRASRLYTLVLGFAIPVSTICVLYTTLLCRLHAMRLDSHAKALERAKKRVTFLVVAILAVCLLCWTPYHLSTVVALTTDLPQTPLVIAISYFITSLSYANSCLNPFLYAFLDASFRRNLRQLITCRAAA

[2] = test system: Streptococcus sp. 'group A'; experiment: Streptococcus pyogenes SK(-)GAS viability under kanamycin – luminescence, BacTiterGlo, confirmation, counter-screen for streptokinase expression inhibitor project, dose response (AID 1900); type: functional, organism-based
[3] = Trypanosoma cruzi growth suppression in host cells – NIH3T3 host cells, beta-gal luminescence, confirmation (AID 2044); type: functional, cell-based;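 further: intracellular parasites grown in NIH/3T3 mouse fibroblasts as host cells; luminescent beta-galactosidase reporter signal from transgenic T. cruzi replicating inside host cells; inhibitors lower the luminescence signal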
[4] = molecular target: T2, Streptokinase A (Streptococcus pyogenes serotype M1, UniProt P10520); experiment: viability-normalized secreted streptokinase activity reduction – plasminogen activation absorbance, OD405, dose response (AID 1914); type: functional, Streptococcus pyogenes M1 GAS;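 further: secreted streptokinase activity via plasminogen activation per viability signal from cell pellet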
T2 sequence (P10520 whole entry): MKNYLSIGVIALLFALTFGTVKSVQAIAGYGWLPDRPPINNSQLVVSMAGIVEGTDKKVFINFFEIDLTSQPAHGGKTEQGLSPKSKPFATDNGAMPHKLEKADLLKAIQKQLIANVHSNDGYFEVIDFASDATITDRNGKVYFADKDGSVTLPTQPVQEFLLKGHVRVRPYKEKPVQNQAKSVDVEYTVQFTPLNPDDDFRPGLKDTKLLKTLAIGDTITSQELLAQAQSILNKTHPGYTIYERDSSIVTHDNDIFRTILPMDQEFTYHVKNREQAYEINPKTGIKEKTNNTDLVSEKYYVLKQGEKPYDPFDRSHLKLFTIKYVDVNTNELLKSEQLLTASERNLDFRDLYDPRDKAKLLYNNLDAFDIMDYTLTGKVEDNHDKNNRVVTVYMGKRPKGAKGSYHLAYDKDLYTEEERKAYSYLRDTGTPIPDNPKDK

[5] = NIH3T3 cell viability loss – ATP luminescence, mouse fibroblasts, counter-screen, dose response (AID 2010); type: functional, cell-based;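 further: cells exposed to compound for about 90 hours before reading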
[6] = molecular target: NACHT, LRR and PYD domains-containing protein 3 (Homo sapiens, UniProt Q96P20); experiment: NALP3 inhibitors in yeast, dose response, luminescent (AID 488799); type: functional
Chain of NACHT, LRR and PYD domains-containing protein 3 (Q96P20 whole entry, the tested form may be a part): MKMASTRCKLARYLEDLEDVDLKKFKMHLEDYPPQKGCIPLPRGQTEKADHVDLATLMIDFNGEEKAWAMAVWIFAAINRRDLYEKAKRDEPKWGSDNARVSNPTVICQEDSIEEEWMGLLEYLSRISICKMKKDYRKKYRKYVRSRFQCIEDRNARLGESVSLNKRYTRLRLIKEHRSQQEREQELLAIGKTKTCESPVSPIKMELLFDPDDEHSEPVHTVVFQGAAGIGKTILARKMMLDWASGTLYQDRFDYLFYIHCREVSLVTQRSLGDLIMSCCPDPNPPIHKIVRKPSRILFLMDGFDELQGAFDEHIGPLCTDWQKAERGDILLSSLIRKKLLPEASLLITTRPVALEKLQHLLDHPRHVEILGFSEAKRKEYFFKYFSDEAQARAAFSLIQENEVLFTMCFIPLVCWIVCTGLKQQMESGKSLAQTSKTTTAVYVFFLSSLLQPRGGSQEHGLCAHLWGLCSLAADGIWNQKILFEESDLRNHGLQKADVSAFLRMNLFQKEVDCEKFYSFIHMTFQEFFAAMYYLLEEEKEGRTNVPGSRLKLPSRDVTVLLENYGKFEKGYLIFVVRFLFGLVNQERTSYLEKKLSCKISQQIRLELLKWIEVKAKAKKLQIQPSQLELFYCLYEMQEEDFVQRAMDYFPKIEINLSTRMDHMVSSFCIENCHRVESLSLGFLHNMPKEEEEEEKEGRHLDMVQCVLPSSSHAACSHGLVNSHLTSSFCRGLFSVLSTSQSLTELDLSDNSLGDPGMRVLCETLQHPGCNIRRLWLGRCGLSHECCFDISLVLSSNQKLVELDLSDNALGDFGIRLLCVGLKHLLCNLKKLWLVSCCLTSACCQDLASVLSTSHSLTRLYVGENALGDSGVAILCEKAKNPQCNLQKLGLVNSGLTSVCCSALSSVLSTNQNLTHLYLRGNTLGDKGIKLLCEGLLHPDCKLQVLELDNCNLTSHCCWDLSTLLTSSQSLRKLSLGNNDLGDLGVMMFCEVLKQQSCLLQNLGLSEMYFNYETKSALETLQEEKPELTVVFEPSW

[7] = Counterscreen for AddAB inhibitors: absorbance-based bacterial cell-based high throughput dose response assay for inhibitors of bacterial viability. [Related pubchem assays (depositor defined):AID435030, AID449728, AID449731, AID488942, AID488955, AID488956]; type: functional
[8] = test system: Streptococcus; experiment: GAS UMAA2166 growth inhibition – luminescence, BacTiterGlo, counter-screen for streptokinase expression inhibitor project, dose response (AID 1915); type: functional, organism-based;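 further: potency for reduction of bacterial viability or growth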
[9] = test system: INS1; experiment: INS-1E survival protection against cytokine death – cell-based, luminescence, retest, dose response (AID 449756); type: functional; settings: Rattus norvegicus;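 further: cell death triggered by IL-1 beta plus TNF-alpha plus IFN-gamma mixture; protective hits raise ATP signal compared with cytokine alone wells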
[10] = molecular target: T3, Exodeoxyribonuclease V (Escherichia coli (strain K12), UniProt P04993+P07648+P08394); experiment: RecBCD inhibition via phage-restricted bacterial growth – absorbance, V66 E. coli, mutant T4 phage, counter-screen for AddAB inhibitor project, dose response (AID 492957); type: functional, cell-based, Escherichia coli str. K-12 substr. MG1655
T3 sequence (P04993 whole entry): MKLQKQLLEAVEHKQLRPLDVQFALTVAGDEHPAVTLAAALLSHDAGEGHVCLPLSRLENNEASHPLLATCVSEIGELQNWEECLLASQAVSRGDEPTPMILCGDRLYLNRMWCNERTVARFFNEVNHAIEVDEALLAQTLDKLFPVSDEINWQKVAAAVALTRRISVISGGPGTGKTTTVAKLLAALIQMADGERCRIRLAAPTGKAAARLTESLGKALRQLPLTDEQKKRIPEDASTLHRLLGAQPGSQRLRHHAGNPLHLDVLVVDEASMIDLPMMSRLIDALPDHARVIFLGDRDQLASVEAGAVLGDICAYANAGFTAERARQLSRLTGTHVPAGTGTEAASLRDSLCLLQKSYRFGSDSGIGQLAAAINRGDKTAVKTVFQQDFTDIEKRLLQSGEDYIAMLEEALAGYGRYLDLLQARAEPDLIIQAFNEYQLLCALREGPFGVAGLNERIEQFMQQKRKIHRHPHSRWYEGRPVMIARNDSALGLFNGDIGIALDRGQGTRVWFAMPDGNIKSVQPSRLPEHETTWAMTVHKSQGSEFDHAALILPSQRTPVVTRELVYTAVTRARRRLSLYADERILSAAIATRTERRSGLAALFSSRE
T3 sequence (P07648 whole entry): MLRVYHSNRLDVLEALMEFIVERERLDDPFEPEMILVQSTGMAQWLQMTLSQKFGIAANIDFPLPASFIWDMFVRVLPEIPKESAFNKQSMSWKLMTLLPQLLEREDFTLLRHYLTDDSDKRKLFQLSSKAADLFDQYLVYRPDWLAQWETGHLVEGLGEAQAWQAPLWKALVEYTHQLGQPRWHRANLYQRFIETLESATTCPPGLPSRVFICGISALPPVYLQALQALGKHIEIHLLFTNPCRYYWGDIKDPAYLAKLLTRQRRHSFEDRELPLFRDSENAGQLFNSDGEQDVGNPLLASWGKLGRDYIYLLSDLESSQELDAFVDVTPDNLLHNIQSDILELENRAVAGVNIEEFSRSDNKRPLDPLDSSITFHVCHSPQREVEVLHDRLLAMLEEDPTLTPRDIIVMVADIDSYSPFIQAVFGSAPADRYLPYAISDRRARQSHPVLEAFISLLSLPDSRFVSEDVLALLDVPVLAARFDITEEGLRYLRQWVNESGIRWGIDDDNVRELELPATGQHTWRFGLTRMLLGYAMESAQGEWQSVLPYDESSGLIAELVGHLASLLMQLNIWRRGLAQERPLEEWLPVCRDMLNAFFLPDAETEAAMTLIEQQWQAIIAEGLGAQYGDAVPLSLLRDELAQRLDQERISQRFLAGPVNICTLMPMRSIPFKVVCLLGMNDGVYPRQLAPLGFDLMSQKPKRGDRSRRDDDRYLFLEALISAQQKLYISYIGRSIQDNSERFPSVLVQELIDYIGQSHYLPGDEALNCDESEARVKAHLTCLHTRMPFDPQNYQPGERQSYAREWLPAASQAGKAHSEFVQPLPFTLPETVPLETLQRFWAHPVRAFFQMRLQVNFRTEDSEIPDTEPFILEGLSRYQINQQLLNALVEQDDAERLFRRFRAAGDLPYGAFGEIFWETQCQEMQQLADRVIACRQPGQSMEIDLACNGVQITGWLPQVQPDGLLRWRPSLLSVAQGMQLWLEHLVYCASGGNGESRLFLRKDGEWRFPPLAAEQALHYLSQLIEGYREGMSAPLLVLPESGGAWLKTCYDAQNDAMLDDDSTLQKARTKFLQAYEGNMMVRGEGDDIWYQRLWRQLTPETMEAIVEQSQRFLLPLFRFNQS
T3 sequence (P08394 whole entry): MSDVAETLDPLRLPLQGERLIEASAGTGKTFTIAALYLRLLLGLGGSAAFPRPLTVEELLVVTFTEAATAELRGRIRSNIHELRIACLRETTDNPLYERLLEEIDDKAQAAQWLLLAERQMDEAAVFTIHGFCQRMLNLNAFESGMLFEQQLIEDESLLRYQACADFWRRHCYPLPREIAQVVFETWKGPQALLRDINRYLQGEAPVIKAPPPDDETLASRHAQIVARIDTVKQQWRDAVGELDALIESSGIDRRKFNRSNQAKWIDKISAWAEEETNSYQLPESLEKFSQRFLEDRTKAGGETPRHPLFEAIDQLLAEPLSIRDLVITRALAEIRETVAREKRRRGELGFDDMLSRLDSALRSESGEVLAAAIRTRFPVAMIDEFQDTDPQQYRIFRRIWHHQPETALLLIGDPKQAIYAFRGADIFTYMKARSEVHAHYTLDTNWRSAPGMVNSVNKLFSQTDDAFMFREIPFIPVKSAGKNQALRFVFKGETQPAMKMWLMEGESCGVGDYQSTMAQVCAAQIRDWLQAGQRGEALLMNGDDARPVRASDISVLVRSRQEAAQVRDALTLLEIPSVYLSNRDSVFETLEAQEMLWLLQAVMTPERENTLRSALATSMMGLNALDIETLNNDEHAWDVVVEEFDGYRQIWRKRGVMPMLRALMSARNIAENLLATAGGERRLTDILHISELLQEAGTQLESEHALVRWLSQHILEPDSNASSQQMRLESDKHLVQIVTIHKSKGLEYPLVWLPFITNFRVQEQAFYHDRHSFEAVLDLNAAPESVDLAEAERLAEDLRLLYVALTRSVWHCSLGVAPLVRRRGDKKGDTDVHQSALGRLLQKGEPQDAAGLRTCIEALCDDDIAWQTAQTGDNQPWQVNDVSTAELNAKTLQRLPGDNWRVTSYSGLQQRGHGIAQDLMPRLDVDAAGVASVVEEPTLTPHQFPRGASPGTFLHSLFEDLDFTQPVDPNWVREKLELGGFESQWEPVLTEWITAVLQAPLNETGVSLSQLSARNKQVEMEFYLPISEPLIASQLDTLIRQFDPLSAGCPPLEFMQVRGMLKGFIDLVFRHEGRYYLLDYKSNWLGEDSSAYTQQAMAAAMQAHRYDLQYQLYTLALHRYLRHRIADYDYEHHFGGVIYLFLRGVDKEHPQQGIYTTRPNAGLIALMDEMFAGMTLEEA

Compound | IC50 [1] | EC50 [2] | EC50 [3] | EC50 [4] | EC50 [5] | IC50 [6] | IC50 [7] | EC50 [8] | AC50 [9] | IC50 [10]
COc1ccc(Oc2c(C)cnn(-c3ccccc3)c2=O)cc1 | > 20 µM (inactive) | – | – | – | – | – | – | – | – | –
N#Cc1ccc(NC(=O)Nc2ccc(Cl)cc2)cc1 | – | 31.4 µM (active) | 2.67 µM (active) | > 150 µM (not active) | 7.48 µM (active) | 3.53 µM (active) | > 119 µM (inactive) | > 150 µM (not active) | 4 µM (active) | > 119 µM (inactive)

From ChEMBL document CHEMBL1201862, “PubChem BioAssay data set” (2004)
